From patent US6271342A, “Sugar-modified cytostatics” (Bayer Aktiengesellschaft, priority 1995, dated 2001) come the findings set out here.

Values after ≈ are worked out from the molar mass of the structure shown.

The subject of one data set is B16F10 tumour. The experiment in a line: In vivo test, survival of mice with transplanted B16F10 tumour. Set-up: species or system mouse. The following applies: 0.1 mg/kg, treated daily. As to the method:
Mice are inoculated with 5×10^6 B16F10 tumour cells on day 0. The animals in which tumour cells are transplanted develop solid peritoneal tumours and are then treated daily with test substances or with the vehicle control. In the control group, 50% of the animals usually die between day 14 and 20. The test substances are administered in buffer or an organic solvent system comprising 20% methanol and 20% dimethyl sulphoxide in 0.7% sodium chloride solution.
The therapeutic result arises from the prolonging of the survival time of the treated animals. […] A therapeutic index can be estimated from the tolerance and prolonging of the survival time.

The test system of data set [1] is bone marrow parent cells of the mouse. The data set is described as follows: CSF-induced proliferation of bone marrow parent cells, in vitro. It is filed as cell-based. The note with it: recombinant murine GM-CSF, 7 days. As to the method:
Bone marrow cells are flushed out of the femur of mice. 10^5 cells are incubated in McCoy SA medium (0.3% agar) together with recombinant murine GM-CSF (Genzyme; parent cell colony formation) and the substances (10^-4 to 100 μg/ml) at 37° C. and 7% CO2. 7 days later, the colonies ([…]) and clusters (17-50 cells) are counted.

A short description of data set [2]: Acute toxicity, single administration. It is filed as in vivo, nu/nu naked mice. The note with it: single administration i.v., aqueous solution. As to the method: Determination of the Acute Toxicity of Glycoconjugates of Batracyline (Single Administration)
The acute toxicity of the batracyline derivatives was determined on nu/nu naked mice.
The substances administered i.v., as aqueous solutions, and the substances administered i.p., as solutions in dimethyl sulphoxide, were injected once in concentrations of up to 400 mg of substance per kg of mouse.
The individual dose tolerated was calculated from the decrease in the weight of the animals up to 21 days after administration and from the number of animals surviving.

A further data set deals with bone marrow parent cells. The data set is described as follows: Bone marrow parent cell proliferation after in vivo treatment. Set-up: species or system mouse. As to the method: Mice are treated subcutaneously with 1, 3, 10 or 30 mg/kg of the compounds. At various times (3, 24, 48, 72 p. inj.) the femurs are removed and the bone marrow cells isolated. 2×10^5 cells are incubated with GM-CSF as described above and, after 7 days, the colonies and clusters are counted.

The next data set has as its system OVXF 899. The experiment in a line: Two-layer soft agar culture of human tumour xenografts. The class given is cell-based. The following applies: T/C ≤30%. As to the method:
(§1) The in vitro activity of glycoconjugates of quinolone-a was determined on human tumour xenografts in a two-layer soft agar culture system according to Hamburger and Salmon (Science 197: 461-463).
(§2) The solid tumours were initially grown in the athymic naked mouse (NMRI nu/nu), obtained by surgery and comminuted mechanically. Individual cells were then obtained by incubation in an enzyme mixture of collagenase 0.05%, DNAse 0.07% and hyaluronidase 0.1% in RPMI at 37° C. for 30 minutes. The cells were washed 2× and then passed through a sieve of 200 μm and 20 μm mesh width.
(§3) The base layer comprises 0.2 ml of Iscoves's Modified Dulbeccos Medium with 20% foetal calf serum and 0.7% agar. 40,000 to 200,000 cells in 0.2 ml of the same medium and 0.4% agar were applied to this layer in 24 multiwell plates. The cytostatic substances were added in 0.2 ml of medium.
(§4) The cultures were incubated at 37° C. in a 7% CO2 atmosphere for 6 to 15 days. The colonies which had grown were then counted under an inverting microscope, the living colonies being stained with a tetrazolium chloride dyestuff 24 hours before the evaluation.
(§5) The effect of the active compound is expressed in per cent of surviving colonies compared with the colony count of untreated plates (T/C=colony count treated×100/control count untreated).
(§6) A substance is active if the T/C value is ≤30%.
(§7) This value is shown as the IC70 value in μg/ml in Table 8.

Another data set relates to MEXF 989. The description is as above. The note with it: T/C ≤30%. It is filed as cell-based. As to the method: as §1, §2, §3, §4, §5, §6, §7
For another data set, the system named is HT 29. The data set is described as above. The class given is cell-based. The following applies: T/C ≤30%. As to the method:
as §1, §2, §3, §4, §5, §6, §7

The test system of data set [3] is SW 480. Described as above. The following applies: T/C ≤30%. The class given is cell-based. As to the method:
as §1, §2, §3, §4, §5, §6, §7

For the next data set, the system named is LXFS 538. The data set is described as above. The class given is cell-based. The note with it: T/C ≤30%. As to the method:
as §1, §2, §3, §4, §5, §6, §7

For a further data set, the system named is LXFL 529. The description is as above. It is filed as cell-based. The note with it: T/C ≤30%. As to the method: as §1, §2, §3, §4, §5, §6, §7
In another data set the test system is CXF 280. The data set is described as above. It is filed as cell-based. The note with it: T/C ≤30%. As to the method:
as §1, §2, §3, §4, §5, §6, §7

The next data set relates to OVXF 1023. The description is as above. The class given is cell-based. The following applies: T/C ≤30%. As to the method: as §1, §2, §3, §4, §5, §6, §7
Data set [4] in a line: Cleavage kinetics with human blood (HPLC). The class given is in vitro ADME. The following applies: Table 2b; 37° C. An excerpt:
In Vitro Investigation of the Cleavability of the Glycoconjugates
Cleavage Kinetics With Human Blood

For a further data set, the system named is SW-480. The data set is described as follows: Cleavage kinetics with cells (HPLC). The following applies: Table 2b; 37° C.
A further data set has as its system B 16 F 10. The experiment in a line: Growth inhibition test (MTT) for cytotoxic properties. It is filed as cell-based, mouse. The note with it: Table 1b. The gist of the method:
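Cells in RPMI 1640 with 10% FCS pre-cultured 1 day at 37° C, then exposed to test substances in DMSO; growth checked after day 3 and day 6. Read-out by MTT, 5 h incubation, isopropanol solubilization, extinction at 540 nm.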

The test system of data set [5] is SW 480. The data set is described as above. The class given is cell-based, human. The following applies: Table 1b. The gist of the method:
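SW 480 and HT 29 cells in RPMI 1640 with 10% FCS were seeded at 50,000 cells/ml, grown 1 day at 37 °C, then exposed to compound added in DMSO. MTT (5 mg/ml stock) was applied after day 3 and day 6 for 5 h, and formazan absorbance was read at 540 nm. IC50 values reported.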

Another data set has as its system hepatoma. The experiment in a line: Cleavage kinetics with cells (HPLC). The following applies: Table 2b; 37° C.

Protocol for SW-480: Cleavage Kinetics With Cells
(§8) 2.25 ml of PBS are incubated together with 225 μl of a cell suspension (30 mg/ml) and 25 μl of substrate stock solution (1 mg/ml in 3% dimethyl sulphoxide in PBS) at 37° C. After 1 hour and 24 hours, samples of in each case 1 ml are taken, mixed with 1 ml of ethanol and left to stand at 4° C. for 20 minutes. After centrifugation (5 minutes at 3500 rpm), 100 μl of supernatant are taken for the HPLC analysis.
Protocol for hepatoma: Cleavage Kinetics With Cells
as §8

Turning to `N[C@@H]1C=CC[C@@H]2CN(c3c(F)cc4c(=O)c(C(=O)O)cn(C5CC5)c4c3Cl)C[C@@H]21` (racemic) [Quinolone-a, 7-[(3aRS,4RS,7aSR)-4-amino-1,3,3a,4,7,7a-hexahydro-isoindol-2-yl]-8-chloro 1-cyclopropyl-6-fluoro-1,4-dihydro4-oxo-3-quinolinecarboxylic acid, reference compound], the “% survivors Day 0” value with B16F10 tumour is 100%. In the data set with B16F10 tumour, the “% survivors Day 20” value turned out to be 100%. Further, the “% survivors Day 25” value in the data set with B16F10 tumour amounted to 100%. Further, in the data set with B16F10 tumour, the “% survivors Day 30” value is listed as 60%. The “% survivors Day 35” value in the data set on B16F10 tumour was 40%. In data set [1] (Mus musculus, 168 h, read-out: IC50 [μg/ml] CSF-induced proliferation of bone marrow parent cells of the mouse), the IC50 came to 0.0002 µg/mL. For the same compound, in [2], the “Individual dose tolerated in mg/kg of mouse, i.v.” value is recorded as < 25 mg/kg of mouse. For the same compound, in the data set on bone marrow parent cells (3 mg/kg, subcutaneously (FIG. 1)), the “suppression of parent cell proliferation in vivo” value is listed as “massive suppression”. The “IC70 /μg/ml” value in the data set with OVXF 899 was 2 µg/mL (≈ 4.79 µM); in the data set with MEXF 989 it was less than 0.3 µg/mL; in the data set on HT 29, 20 µg/mL (≈ 47.9 µM); with SW 480 [3] it was 3 µg/mL (≈ 7.18 µM); with LXFS 538, less than 0.3 µg/mL; in the data set on LXFL 529, 3 µg/mL (≈ 7.18 µM). The “IC70 /μg/ml” value in the data set on CXF 280 is 6 µg/mL (≈ 14.4 µM); in the data set on OVXF 1023 it was 0.5 µg/mL (≈ 1.2 µM).
Take `C[C@@H]1O[C@H](Oc2ccc(NC(=S)N[C@H](C)C(=O)NC3C=CCC4CN(c5c(F)cc6c(=O)c(C(=O)O)cn(C7CC7)c6c5Cl)CC43)cc2)[C@@H](O)[C@H](OCC(=O)[O-])[C@@H]1O.[Na+]` (stereo partly drawn) [Example 12.3, N-{N'-[O-(3-O-Carboxymethyl-β-L-fucosyl)-4-hydroxy-phenylamino-thiocarbonyl]-D-alanyl}-quinolone-a, mono-sodium salt]: in data set [1], the “IC50 [μg/ml] CSF-induced proliferation of bone marrow parent cells of the mouse” value stood at 0.27 µg/mL. Besides, the “Individual dose tolerated in mg/kg of mouse, i.v.” value in data set [2] is given as > 200 mg/kg of mouse. In addition, in data set [4], the “% cleavage in human blood 1 hour” value was determined as 0%. The “% cleavage in human blood 24 hours” value in data set [4] is listed as 0%. Besides, in the data set with bone marrow parent cells (up to 30 mg/kg, subcutaneously), the “inhibition in parent cell proliferation in vivo” value is on record as “no inhibition”. Further, the “% cleavage in SW-480 1 hour” value in the data set with SW-480 came to 0%. Also, the “% cleavage in SW-480 24 hours” value in the data set on SW-480 was 0%. Also, the IC50 was 0.3 µM in the data set on B 16 F 10 and 2 µM with SW 480 [5]. Moreover, the “IC70 /μg/ml” value in the data set on OVXF 899 was 162 µg/mL; in the data set with MEXF 989, less than 0.3 µg/mL; in the data set with HT 29, 5 µg/mL; with SW 480 [3], 11 µg/mL; with LXFS 538, 0.5 µg/mL; with LXFL 529 it was 2 µg/mL. Further, the “IC70 /μg/ml” value was determined as 5 µg/mL with CXF 280 and 10 µg/mL with OVXF 1023. Further, in the data set on hepatoma, the “% cleavage in hepatoma 1 hour” value was 0%. In addition, the “% cleavage in hepatoma 24 hours” value with hepatoma is 0%.
